{"source": "patent US12673975B2", "about": "“Cyclic peptide, cell scaffold material, cell separating material, and medium” (FUJIFILM Corporation, priority 2019, dated 2026)", "key": {"[1]": {"experiment": "Evaluation of molecule stability (alkali treatment, residual rate by LC/MS)", "assay_type": "physicochemical", "conditions": "for Performance evaluation: Stability (residual rate of cyclic peptide after alkali treatment): 500 μM peptide aqueous solution plus equivalent of 1 M sodium hydroxide, 15° C., 3 hours, LC/MS peak area", "procedure,_shortened": "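500 μM aqueous cyclic peptide mixed with an equal volume of 1 M NaOH and held 3 h at 15 °C. Residual rate is total LC/MS peak area after treatment relative to untreated (100%), using a C18 column, pH 3 ammonium formate/acetonitrile gradient, 45 °C, ESI±.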"}, "[2]": {"target": "human integrin αvβ5 (Homo sapiens, UniProt P06756+P18084)", "sequence (P06756 31-1048)": "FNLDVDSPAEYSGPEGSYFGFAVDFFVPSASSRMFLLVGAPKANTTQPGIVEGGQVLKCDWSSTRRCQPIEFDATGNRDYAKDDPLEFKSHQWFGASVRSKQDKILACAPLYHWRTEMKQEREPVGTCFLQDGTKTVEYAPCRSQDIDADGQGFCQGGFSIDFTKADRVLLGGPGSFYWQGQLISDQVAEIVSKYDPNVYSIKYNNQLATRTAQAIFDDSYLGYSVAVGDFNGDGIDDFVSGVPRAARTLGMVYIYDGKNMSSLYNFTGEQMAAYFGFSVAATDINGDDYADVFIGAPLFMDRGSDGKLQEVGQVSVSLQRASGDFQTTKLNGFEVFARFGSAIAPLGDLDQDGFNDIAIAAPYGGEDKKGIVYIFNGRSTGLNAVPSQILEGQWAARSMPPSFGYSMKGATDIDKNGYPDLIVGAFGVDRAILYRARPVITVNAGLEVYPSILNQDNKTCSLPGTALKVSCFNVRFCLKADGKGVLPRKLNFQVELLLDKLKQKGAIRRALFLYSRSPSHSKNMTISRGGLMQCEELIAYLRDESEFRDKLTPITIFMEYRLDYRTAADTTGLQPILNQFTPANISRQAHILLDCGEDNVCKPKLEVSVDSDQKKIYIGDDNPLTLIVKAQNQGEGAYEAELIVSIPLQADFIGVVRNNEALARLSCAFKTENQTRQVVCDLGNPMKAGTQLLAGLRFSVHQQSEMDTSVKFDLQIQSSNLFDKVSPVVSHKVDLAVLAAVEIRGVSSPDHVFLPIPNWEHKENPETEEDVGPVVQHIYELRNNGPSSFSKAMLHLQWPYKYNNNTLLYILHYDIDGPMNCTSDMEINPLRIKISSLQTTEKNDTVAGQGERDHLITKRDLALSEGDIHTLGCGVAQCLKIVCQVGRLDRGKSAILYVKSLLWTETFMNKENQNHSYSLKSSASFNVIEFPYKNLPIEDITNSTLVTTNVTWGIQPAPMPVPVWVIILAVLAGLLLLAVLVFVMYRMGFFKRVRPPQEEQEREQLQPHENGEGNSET", "sequence (P18084 24-799)": "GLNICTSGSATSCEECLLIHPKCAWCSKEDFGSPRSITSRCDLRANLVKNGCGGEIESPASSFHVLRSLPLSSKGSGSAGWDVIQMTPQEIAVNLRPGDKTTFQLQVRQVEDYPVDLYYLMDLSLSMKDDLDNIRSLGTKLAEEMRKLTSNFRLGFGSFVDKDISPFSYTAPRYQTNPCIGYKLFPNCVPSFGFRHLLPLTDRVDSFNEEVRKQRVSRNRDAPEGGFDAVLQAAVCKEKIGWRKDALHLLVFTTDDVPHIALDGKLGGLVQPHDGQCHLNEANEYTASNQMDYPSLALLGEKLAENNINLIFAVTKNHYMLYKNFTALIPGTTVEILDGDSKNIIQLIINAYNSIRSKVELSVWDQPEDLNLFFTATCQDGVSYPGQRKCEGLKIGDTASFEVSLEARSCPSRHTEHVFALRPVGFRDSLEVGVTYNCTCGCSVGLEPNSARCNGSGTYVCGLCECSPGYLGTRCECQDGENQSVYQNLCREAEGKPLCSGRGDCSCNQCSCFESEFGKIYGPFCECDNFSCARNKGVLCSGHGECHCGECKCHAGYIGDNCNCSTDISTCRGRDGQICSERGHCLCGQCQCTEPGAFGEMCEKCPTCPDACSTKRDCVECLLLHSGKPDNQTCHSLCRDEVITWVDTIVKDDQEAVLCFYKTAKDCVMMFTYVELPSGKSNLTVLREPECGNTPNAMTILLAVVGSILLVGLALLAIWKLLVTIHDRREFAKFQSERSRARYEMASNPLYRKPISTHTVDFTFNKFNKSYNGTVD", "experiment": "Evaluation of integrin binding property (surface plasmon resonance, Biacore 3000, immobilized cyclic peptide)", "procedure,_shortened": "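SPR with cyclic peptide amine-coupled via EDC/NHS to a CM5 chip, blank channel as reference. Integrin αvβ5 at 30, 100, 300 and 1,000 nM injected 10 min at 25 °C in HEPES buffer pH 7.4 with 5 mM MgCl2, 30 min buffer flow, EDTA regeneration; Kd from reference-subtracted signals, graded by category.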"}, "[3]": {"conditions": "SPR, 25° C., HEPES buffer with 5 mM magnesium chloride, integrin 30-1,000 nM, read-out: Performance evaluation: Binding activity (dissociation constant between the cyclic peptide and human integrin αvβ5)"}}, "note": "Where two headings read alike, the source gives them in different places. Starred links: 1 amine or outer side, 2 acyl side, 3 side chain; linkers in the order of their positions; H or OH if unused. Positions of bridges follow the written chain, without caps; N, C: chain ends. Non-standard residues stand in square brackets, D forms with d. Residues, ends and D or L forms follow the SMILES beside them. hCys = N[C@@H](CCS)C(=O)O; Dab = NCC[C@H](N)C(=O)O; X2 = O=C(C[*:1])[*:2]"}
{"smiles": "CC[C@H](C)[C@@H]1NC(=O)[C@@H](NC(=O)CNC(=O)[C@H](CCCCN)NC(=O)[C@H](CCCCN)NC(=O)[C@@H](N)CCCCN)CCSCC(=O)NCC[C@@H](C(=O)NCC(=O)O)NC(=O)[C@H](CCCNC(=N)N)NC(=O)[C@H](Cc2ccccc2)NC(=O)[C@H]([C@@H](C)O)NC(=O)[C@H](CC(=O)O)NC(=O)CNC(=O)[C@H](CCCNC(=N)N)NC(=O)[C@@H]2CCCN2C1=O", "note": "[Cyclic peptide 55, KKKG-(Hcy)-IPRGDTFR(Dab(acetyl))G] (H-KKKG[hCys]IPRGDTFR[Dab]G-OH; linker 5-14 via X2)", "values": [{"measurement": "Performance evaluation: Stability (residual rate of cyclic peptide after alkali treatment)", "setting": "[1]", "value": "A (The residual rate of the cyclic peptide is 70% or more.)"}, {"measurement": "Kd", "setting": "[2]; [3]", "value": "< 50", "unit": "nM"}]}
{"smiles": "CC[C@H](C)[C@@H]1NC(=O)[C@@H](NC(=O)[C@H](C)NC(=O)[C@H](CCCCN)NC(=O)[C@H](CCCCN)NC(=O)[C@@H](N)CCCCN)CCSCC(=O)NCC[C@@H](C(=O)N[C@@H](C)C(=O)O)NC(=O)CNC(=O)[C@H](Cc2ccccc2)NC(=O)[C@H]([C@@H](C)O)NC(=O)[C@H](CC(=O)O)NC(=O)CNC(=O)[C@H](CCCNC(=N)N)NC(=O)[C@@H]2CCCN2C1=O", "note": "[Cyclic peptide 88, KKKA-(Hcy)-IPRGDTFG(Dab(acetyl))A] (H-KKKA[hCys]IPRGDTFG[Dab]A-OH; linker 5-14 via X2)", "values": [{"measurement": "Performance evaluation: Stability (residual rate of cyclic peptide after alkali treatment)", "setting": "[1]", "value": "A (The residual rate of the cyclic peptide is 70% or more.)"}, {"measurement": "Kd", "setting": "[2]; [3]", "value": "< 50", "unit": "nM"}]}
{"smiles": "CC[C@H](C)[C@@H]1NC(=O)[C@@H](NC(=O)[C@H](C)N)CCSCC(=O)NCC[C@@H](C(=O)N[C@@H](C)C(=O)O)NC(=O)[C@H](C)NC(=O)[C@H](Cc2ccccc2)NC(=O)[C@H](CO)NC(=O)[C@H](CC(=O)O)NC(=O)CNC(=O)[C@H](CCCNC(=N)N)NC(=O)[C@@H]2CCCN2C1=O", "note": "[Cyclic peptide 126, A-(Hcy)-IPRGDSFA(Dab(acetyl))A] (H-A[hCys]IPRGDSFA[Dab]A-OH; linker 2-11 via X2)", "values": [{"measurement": "Stability (molecule stability, residual rate of the cyclic peptide rank)", "setting": "[1]; alkali treatment, residual rate by LC/MS", "value": "A (The residual rate of the cyclic peptide is 70% or more.)"}, {"measurement": "Kd", "setting": "[2]; surface plasmon resonance, immobilized cyclic peptide, human integrin αvβ5, read-out: Binding activity (integrin binding property, dissociation constant rank)", "value": "< 50", "unit": "nM"}]}
{"smiles": "N=C(N)NCCC[C@@H]1NC(=O)[C@H](Cc2ccc(O)cc2)NC(=O)[C@H](CC(N)=O)NC(=O)[C@H](CC(=O)O)NC(=O)CNC(=O)[C@H](CCCNC(=N)N)NC(=O)[C@@H]2CCCN2C(=O)[C@H](CCC(=O)O)NC(=O)[C@@H](NC(=O)[C@H](CCC(=O)O)NC(=O)[C@H](CCCCN)NC(=O)[C@H](CCCCN)NC(=O)[C@@H](N)CCCCN)CCSCC(=O)NCC[C@@H](C(=O)N[C@@H](CC(=O)O)C(=O)O)NC1=O", "note": "[Cyclic peptide 39, KKKE-(Hcy)-EPRGDNYR(Dab(acetyl))D] (H-KKKE[hCys]EPRGDNYR[Dab]D-OH; linker 5-14 via X2)", "values": [{"measurement": "Performance evaluation: Stability (residual rate of cyclic peptide after alkali treatment)", "setting": "[1]", "value": "A (The residual rate of the cyclic peptide is 70% or more.)"}, {"measurement": "Kd", "setting": "[2]; [3]", "value": "< 50", "unit": "nM"}]}
{"smiles": "CC[C@H](C)[C@@H]1NC(=O)[C@@H](NC(=O)[C@H](C)NC(=O)[C@H](CCCCN)NC(=O)[C@H](CCCCN)NC(=O)[C@@H](N)CCCCN)CCSCC(=O)NCC[C@@H](C(=O)N[C@@H](C)C(=O)O)NC(=O)[C@H](CCCNC(=N)N)NC(=O)[C@H](Cc2ccccc2)NC(=O)[C@H](CC(N)=O)NC(=O)[C@H](CC(=O)O)NC(=O)CNC(=O)[C@H](CCCNC(=N)N)NC(=O)[C@@H]2CCCN2C1=O", "note": "[Cyclic peptide 2, KKKA-(Hcy)-IPRGDNFR(Dab(acetyl))A] (H-KKKA[hCys]IPRGDNFR[Dab]A-OH; linker 5-14 via X2)", "values": [{"measurement": "Performance evaluation: Stability (residual rate of cyclic peptide after alkali treatment)", "setting": "[1]", "value": "A (The residual rate of the cyclic peptide is 70% or more.)"}, {"measurement": "Kd", "setting": "[2]; [3]", "value": "< 50", "unit": "nM"}]}
{"smiles": "CC(C)[C@@H]1NC(=O)[C@@H](NC(=O)CNC(=O)[C@H](CCCCN)NC(=O)[C@H](CCCCN)NC(=O)[C@@H](N)CCCCN)CCSCC(=O)NCC[C@@H](C(=O)N[C@@H](C)C(=O)O)NC(=O)[C@H](C)NC(=O)[C@H](Cc2ccccc2)NC(=O)[C@H](CO)NC(=O)[C@H](CC(=O)O)NC(=O)CNC(=O)[C@H](CCCNC(=N)N)NC(=O)[C@@H]2CCCN2C1=O", "note": "[Cyclic peptide 98, KKKG-(Hcy)-VPRGDSFA(Dab(acetyl))A] (H-KKKG[hCys]VPRGDSFA[Dab]A-OH; linker 5-14 via X2)", "values": [{"measurement": "Performance evaluation: Stability (residual rate of cyclic peptide after alkali treatment)", "setting": "[1]", "value": "A (The residual rate of the cyclic peptide is 70% or more.)"}, {"measurement": "Kd", "setting": "[2]; [3]", "value": "< 50", "unit": "nM"}]}
